Reference: patent US10576062B2, “Carbamoyloxymethyl triazole cyclohexyl acids as LPA antagonists” (Bristol-Myers Squibb Company, priority 2016, dated 2020)

Target: T1, human LPA1 (Homo sapiens, UniProt Q92633)
T1 construct: expressed in transfected cells; host or cells: Chinese hamster ovary (CHO) cells
Test: LPA1 functional antagonist assay (LPA-induced calcium flux)
Type: cell-based
Details: CHO cells overexpressing human LPA1; inhibition of calcium flux induced by 10 nM LPA; read-out: hLPA1 IC50
Method: The effectiveness of compounds of the present invention as LPA1 inhibitors can be determined in an LPA1 functional antagonist assay as follows: Chinese hamster ovary cells overexpressing human LPA1 were plated overnight (15,000 cells/well) in poly-D-lysine coated 384-well microplates (Greiner bio-one, Cat #781946) in DMEM/F12 medium (Gibco, Cat #11039). Following overnight culture, cells were loaded with calcium indicator dye (AAT Bioquest Inc, Cat #34601) for 30 minutes at 37° C. The cells were then equilibrated to room temperature for 30 minutes before the assay. Test compounds solubilized in DMSO were transferred to 384 well non-binding surface plates (Corning, Cat #3575) using the Labcyte Echo acoustic dispense and diluted with assay buffer [1×HBSS with calcium/magnesium (Gibco Cat #14025-092), 20 mM HEPES (Gibco Cat #15630-080) and 0.1% fatty acid free BSA (Sigma Cat #A9205)] to a final concentration of 0.5% DMSO. Diluted compounds were added to the cells by FDSS6000 (Hamamatsu) at final concentrations ranging from 0.08 nM to 5 μM. and were then incubated for 20 min at room temperature at which time LPA (Avanti Polar Lipids Cat #857130C) was added at final concentrations of 10 nM to stimulate the cells. […] IC50 values were determined by fitting data to a 4-parameter logistic equation (GraphPad Prism, San Diego Calif.).

T1 sequence (Q92633 whole entry): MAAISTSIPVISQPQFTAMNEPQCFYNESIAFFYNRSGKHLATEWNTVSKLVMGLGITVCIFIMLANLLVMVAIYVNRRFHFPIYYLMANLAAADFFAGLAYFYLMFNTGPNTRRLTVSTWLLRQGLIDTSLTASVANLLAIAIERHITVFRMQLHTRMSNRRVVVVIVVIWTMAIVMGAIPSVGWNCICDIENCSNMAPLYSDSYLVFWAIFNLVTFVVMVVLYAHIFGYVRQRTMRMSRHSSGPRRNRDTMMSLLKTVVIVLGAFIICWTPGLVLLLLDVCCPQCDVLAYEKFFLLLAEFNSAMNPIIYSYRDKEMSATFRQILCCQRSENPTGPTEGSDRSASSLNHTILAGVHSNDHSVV

Row | SMILES | IC50
1 | Cc1nc(-c2nnn(C)c2COC(=O)N(C)CC2CCC2)ccc1O[C@H]1CCC[C@H](C(N)=O)C1 [Example 14, (4-(5-(((1S,3S)-3-carbamoylcyclohexyl)oxy)-6-methylpyridin-2-yl)-1-methyl-1H-1,2,3-triazol-5-yl)methyl (cyclobutylmethyl)(methyl)carbamate] | 824 nM
2 | CN(C(=O)OCc1c(-c2ccc(O[C@H]3CCC[C@H](C(=O)NS(C)(=O)=O)C3)cc2)nnn1C)C1CCCC1 [Example 7, (1-Methyl-4-(4-(((1S,3S)-3-((methylsulfonyl)carbamoyl)cyclohexyl)oxy)phenyl)-1H-1,2,3-triazol-5-yl)methyl cyclopentyl(methyl)carbamate] | 3750 nM

Second part, the compound after the results:

Row | IC50 | SMILES
3 | 1070 nM | CN(CC1CC1)C(=O)OCc1c(-c2cnc(O[C@H]3CCC[C@H](C(=O)O)C3)cn2)nnn1C [Example 213, (1S,3S)-3-((5-(5-((((cyclopropylmethyl)(methyl)carbamoyl)oxy)methyl)-1-methyl-1H-1,2,3-triazol-4-yl)pyrazin-2-yl)oxy)cyclohexane-1-carboxylic acid]
4 | 47 nM | CCc1nc(-c2nnn(C)c2COC(=O)N2CCC3(CC3)C2)ccc1O[C@H]1CCC[C@H](C(=O)O)C1 [Example 211, (1S,3S)-3-((6-(5-(((5-azaspiro[2.4]heptane-5-carbonyl)oxy)methyl)-1-methyl-1H-1,2,3-triazol-4-yl)-2-ethylpyridin-3-yl)oxy)cyclohexane-1-carboxylic acid]
5 | 69 nM | Cc1nc(-c2nnn(C)c2CCOC(=O)N(C)CC(C)C)ccc1O[C@H]1CCC[C@H](C(=O)O)C1 [Example 245, (1S,3S)-3-((6-(5-(2-((Isobutyl-(methyl)carbamoyl)oxy)ethyl)-1-methyl-1H-1,2,3-triazol-4-yl)-2-methylpyridin-3-yl)oxy)cyclohexane-1-carboxylic acid]
6 | 390 nM | Cc1nc(-c2nnn(C)c2COC(=O)N(C)CCCF)cnc1O[C@H]1CCC[C@H](C(=O)O)C1 [Example 230, (1S,3S)-3-((5-(5-((((3-fluoropropyl)(methyl)carbamoyl)oxy)methyl)-1-methyl-1H-1,2,3-triazol-4-yl)-3-methylpyrazin-2-yl)oxy)cyclohexane-1-carboxylic acid]
7 | 49 nM | Cc1nc(-c2nnn(C)c2COC(=O)N(C)C2CCCC2)cnc1O[C@H]1CCC[C@H](C(=O)O)C1 [Example 226, (1S,3S)-3-((5-(5-(((cyclopentyl(methyl)carbamoyl)oxy)methyl)-1-methyl-1H-1,2,3-triazol-4-yl)-3-methylpyrazin-2-yl)oxy)cyclohexane-1-carboxylic acid]
8 | 475 nM | CCCN(C)C(=O)OCc1c(-c2ccc(O[C@H]3CCC[C@H](C(=O)O)C3)c(COC)n2)nnn1C [Example 283, (1S,3S)-3-((2-(methoxymethyl)-6-(1-methyl-5-(((methyl(propyl)carbamoyl)oxy)methyl)-1H-1,2,3-triazol-4-yl)pyridin-3-yl)oxy)cyclohexane-1-carboxylic acid]
9 | 10 nM | CN(CC1CCC1)C(=O)OCc1c(-c2ccc(O[C@H]3CCC[C@H](C(=O)O)C3)c(C(F)(F)F)n2)nnn1C [Example 269, (1S,3 S)-3-((6-(5-((((cyclobutylmethyl)(methyl)carbamoyl)oxy)methyl)-1-methyl-1H-1,2,3-triazol-4-yl)-2-(trifluoromethyl)pyridin-3-yl)oxy)cyclohexane-1-carboxylic Acid]
10 | 22 nM | CCCCN(C)C(=O)OCc1c(-c2ccc(O[C@H]3CCC[C@H](C(=O)O)C3)c(C(F)F)n2)nnn1C [Example 278, (1S,3S)-3-((6-(5-(((butyl(methyl)carbamoyl)oxy)methyl)-1-methyl-1H-1,2,3-triazol-4-yl)-2-(difluoromethyl)pyridin-3-yl)oxy)cyclohexane-1-carboxylic acid]

Same assay, conditions: human LPA1; read-out: hLPA1 IC50

Row | SMILES | IC50
11 | Cc1nc(-c2nnn(C)c2COC(=O)N(C)C(C)(C)CF)ccc1O[C@H]1CCC[C@H](C(=O)O)C1 [Example 178, (1S,3S)-3-((6-(5-((((1-fluoro-2-methylpropan-2-yl)(methyl)carbamoyl)oxy)methyl)-1-methyl-1H-1,2,3-triazol-4-yl)-2-methyl-pyridin-3-yl)oxy)cyclohexane-1-carboxylic acid] | 156 nM
12 | Cc1nc(-c2nnn(C)c2COC(=O)N2CCC(C(C)C)C2)ccc1O[C@H]1CCC[C@H](C(=O)O)C1 (mixture of isomers) [Example 163, (1S,3S)-3-((6-(5-(((3-isopropylpyrrolidine-1-carbonyl)oxy)methyl)-1-methyl-1H-1,2,3-triazol-4-yl)-2-methylpyridin-3-yl)oxy)cyclohexane-1-carboxylic acid] | 104 nM
13 | Cc1nc(-c2nnn(C)c2COC(=O)N(C)C2CC(F)C2)ccc1O[C@H]1CCC[C@H](C(=O)O)C1 (mixture of isomers) [Example 182, (1S,3S)-3-((6-(5-((((3-fluorocyclobutyl)(methyl)carbamoyl)oxy)methyl)-1-methyl-1H-1,2,3-triazol-4-yl)-2-methylpyridin-3-yl)oxy)cyclohexane-1-carboxylic acid] | 61 nM

Same assay, conditions: read-out: hLPA1 IC50

Row | SMILES | IC50
14 | CCCN(CC)C(=O)OCc1c(-c2ccc(O[C@H]3CCC[C@H](C(=O)O)C3)c(C)n2)nnn1C [Example 128, (1S,3S)-3-((6-(5-(((ethyl(propyl)carbamoyl)oxy)methyl)-1-methyl-1H-1,2,3-triazol-4-yl)-2-methylpyridin-3-yl)oxy)cyclohexane-1-carboxylic acid] | 158 nM
15 | Cc1nc(-c2nnn(C)c2COC(=O)N2CCC(C)C2)ccc1O[C@H]1CCC[C@H](C(=O)O)C1 (mixture of isomers) [Example 147, (1S,3S)-3-((2-methyl-6-(1-methyl-5-(((3-methylpyrrolidine-1-carbonyl)oxy)methyl)-1H-1,2,3-triazol-4-yl)pyridin-3-yl)oxy)cyclohexane-1-carboxylic acid] | 250 nM
16 | CCCCN(C)C(=O)OCc1c(-c2ccc(O[C@H]3CCC[C@H](C(=O)O)C3)cn2)nnn1C [Example 43, (1S,3S)-3-((6-(5-(((butyl(methyl)carbamoyl)oxy)methyl)-1-methyl-1H-1,2,3-triazol-4-yl)pyridin-3-yl)oxy)cyclohexane-1-carboxylic acid] | 7 nM
17 | Cc1nc(-c2nnn(C)c2COC(=O)N2CCC(F)(F)C2)ccc1O[C@H]1CCC[C@H](C(=O)O)C1 [Example 143, (1S,3S)-3-((6-(5-(((3,3-difluoro-pyrrolidine-1-carbonyl)oxy)methyl)-1-methyl-1H-1,2,3-triazol-4-yl)-2-methylpyridin-3-yl)oxy)cyclohexane-1-carboxylic acid] | 518 nM
18 | Cc1nc(-c2nnn(C)c2COC(=O)N(C)Cc2ccc(Cl)cc2)ccc1O[C@H]1CCC[C@H](C(=O)O)C1 [Example 35, (1S,3S)-3-((6-(5-((((4-chlorobenzyl)(methyl)carbamoyl)oxy)methyl)-1-methyl-1H-1,2,3-triazol-4-yl)-2-methylpyridin-3-yl)oxy)cyclohexane-1-carboxylic acid] | 284 nM
19 | Cc1nc(-c2nnn(C)c2COC(=O)N2CC(C)C2)ccc1O[C@H]1CCC[C@H](C(=O)O)C1 [Example 156, (1S,3S)-3-((2-methyl-6-(1-methyl-5-(((3-methylazetidine-1-carbonyl)oxy)methyl)-1H-1,2,3-triazol-4-yl)pyridin-3-yl)oxy)cyclohexane-1-carboxylic acid] | 231 nM
20 | C[C@H](C1CC1)N(C)C(=O)OCc1c(-c2ccc(O[C@H]3CCC[C@H](C(=O)O)C3)c(F)c2)nnn1C [Example 70, (1S,3S)-3-(4-(5-(((((R)-1-cyclopropylethyl)(methyl)carbamoyl)oxy)methyl)-1-methyl-1H-1,2,3-triazol-4-yl)-2-fluorophenoxy)cyclohexane-1-carboxylic acid] | 10 nM
21 | CCCC1(N(C)C(=O)OCc2c(-c3ccc(O[C@H]4CCC[C@H](C(=O)O)C4)cc3)nnn2C)CC1 [Example 75, (1S,3S)-3-(4-(1-methyl-5-(((methyl(1-propylcyclopropyl)carbamoyl)oxy)methyl)-1H-1,2,3-triazol-4-yl)phenoxy)cyclohexane-1-carboxylic acid] | 20 nM
22 | CC(OC(=O)N(C)C1CCCC1)c1c(-c2ccc(O[C@H]3CCC[C@H](C(=O)O)C3)cc2)nnn1C (stereo partly drawn) [Example 94, (1S,3S)-3-(4-(5-(1-((cyclopentyl(methyl)carbamoyl)oxy)ethyl)-1-methyl-1H-1,2,3-triazol-4-yl)phenoxy)cyclohexane-1-carboxylic acid] | 241 nM
23 | CC(C1CCC1)N(C)C(=O)OCc1c(-c2ccc(O[C@H]3CCC[C@H](C(=O)O)C3)cc2)nnn1C (single isomer, unassigned) [Example 48] | 8 nM
24 | Cc1nc(-c2nnn(C)c2COC(=O)N2CC(C)(C)C2)ccc1O[C@H]1CCC[C@H](C(=O)O)C1 [Example 155, (1S,3S)-3-((6-(5-(((3,3-dimethylazetidine-1-carbonyl)oxy)methyl)-1-methyl-1H-1,2,3-triazol-4-yl)-2-methylpyridin-3-yl)oxy)cyclohexane-1-carboxylic acid] | 175 nM
25 | Cc1nc(-c2nnn(C)c2COC(=O)N(C)C2CCC2)ccc1O[C@H]1CCC[C@H](C(=O)O)C1 [Example 136, (1S,3S)-3-((6-(5-(((cyclobutyl(methyl)carbamoyl)oxy)methyl)-1-methyl-1H-1,2,3-triazol-4-yl)-2-methylpyridin-3-yl)oxy)cyclohexane-1-carboxylic acid] | 36 nM
